In ChEMBL document CHEMBL5724914, “Linking interpersonal differences in gut microbiota composition and drug biotransformation activity” (2024):

Tests used:
[1] = (§1) The drug is tested on Z-028 corresponding to mouse gut metagenome with ENA study accession number: PRJEB37062 and ENA sample accession number: ERS12561827 for biotransformation under anaerobic condition. The drug concentrations were measured over 9 timepoints collected between 0 and 24 hours of incubation by liquid-chromatography-coupled mass spectrometry (LC–MS); details: 2 µM
[2] = as §1, with “Z-009” for “Z-028”, “pig” for “mouse”, “ERS12561809” for “ERS12561827”; details: 2 µM
[3] = human gut metagenome, 24 h, 2 µM
[4] = human gut metagenome, 24 h, 2 µM; remark: listed apart in the source
[5] = human gut metagenome, 24 h, 2 µM; remark: listed apart in the source
[6] = as §1, with “Z-005” for “Z-028”, “to” for “to mouse gut”, “ERS12561805” for “ERS12561827”; details: 2 µM
[7] = as §1, with “Z-018” for “Z-028”, “pig” for “mouse”, “ERS12561817” for “ERS12561827”; details: 2 µM
[8] = human gut metagenome, 24 h, 2 µM; remark: listed apart in the source
[9] = human gut metagenome, 24 h, 2 µM; remark: listed apart in the source
[10] = as §1, with “WLS-082” for “Z-028”, “human” for “mouse”, “ERS12561751” for “ERS12561827”; details: 2 µM
[11] = human gut metagenome, 24 h, 2 µM; remark: listed apart in the source
[12] = as §1, with “Z-025” for “Z-028”, “rabbit” for “mouse”, “ERS12561824” for “ERS12561827”; details: 2 µM
[13] = as §1, with “WLS-086” for “Z-028”, “human” for “mouse”, “ERS12561752” for “ERS12561827”; details: 2 µM
[14] = as §1, with “WLS-006” for “Z-028”, “human” for “mouse”, “ERS12561741” for “ERS12561827”; details: 2 µM
[15] = human gut metagenome, 24 h, 2 µM; remark: listed apart in the source
[16] = human gut metagenome, 24 h, 2 µM; remark: listed apart in the source
[17] = as §1, with “Z-024” for “Z-028”, “pig” for “mouse”, “ERS12561823” for “ERS12561827”; details: 2 µM
[18] = as §1, with “Z-017” for “Z-028”, “ERS12561816” for “ERS12561827”; details: 2 µM
[19] = human gut metagenome, 24 h, 2 µM; remark: listed apart in the source
[20] = as §1, with “WLS-073” for “Z-028”, “human” for “mouse”, “ERS12561749” for “ERS12561827”; details: 2 µM
Also: call rule not given here.

Bacterial Biotransformation [11] | Bacterial Biotransformation [13] | Bacterial Biotransformation [20] | SMILES | Bacterial Biotransformation [1] | Bacterial Biotransformation [2] | Bacterial Biotransformation [3] | Bacterial Biotransformation [4] | Bacterial Biotransformation [5] | Bacterial Biotransformation [6] | Bacterial Biotransformation [7] | Bacterial Biotransformation [8] | Bacterial Biotransformation [9] | Bacterial Biotransformation [10] | Bacterial Biotransformation [12] | Bacterial Biotransformation [14] | Bacterial Biotransformation [15] | Bacterial Biotransformation [16] | Bacterial Biotransformation [17] | Bacterial Biotransformation [18] | Bacterial Biotransformation [19]
Compound NOT metabolized | Compound metabolized | – | CCc1oc2ccccc2c1C(=O)c1cc(Br)c(O)c(Br)c1 [BENZBROMARONE] | Compound metabolized | Compound NOT metabolized | Compound NOT metabolized | Compound metabolized | Compound metabolized | Compound metabolized | Compound metabolized | Compound metabolized | Compound metabolized | Compound metabolized | Compound NOT metabolized | Compound metabolized | Compound metabolized | Compound NOT metabolized | Compound NOT metabolized | Compound NOT metabolized | Compound NOT metabolized
Compound metabolized | Compound metabolized | Compound NOT metabolized | CCc1cccc2c3c([nH]c12)C(CC)(CC(=O)O)OCC3 (centres undefined) [ETODOLAC] | Compound NOT metabolized | Compound NOT metabolized | Compound metabolized | Compound metabolized | Compound metabolized | Compound NOT metabolized | Compound metabolized | Compound metabolized | Compound metabolized | – | Compound NOT metabolized | Compound metabolized | Compound metabolized | Compound metabolized | Compound NOT metabolized | Compound NOT metabolized | Compound NOT metabolized
– | – | – | Cc1cc2c(s1)Nc1ccccc1N=C2N1CCN(C)CC1 [OLANZAPINE] | Compound NOT metabolized | Compound NOT metabolized | Compound NOT metabolized | Compound NOT metabolized | Compound NOT metabolized | Compound NOT metabolized | Compound NOT metabolized | Compound metabolized | Compound NOT metabolized | Compound NOT metabolized | Compound metabolized | Compound NOT metabolized | Compound metabolized | Compound NOT metabolized | Compound NOT metabolized | Compound NOT metabolized | Compound NOT metabolized

SMILES | Bacterial Biotransformation [11] | Bacterial Biotransformation [13] | Bacterial Biotransformation [20] | Bacterial Biotransformation [1] | Bacterial Biotransformation [2] | Bacterial Biotransformation [3] | Bacterial Biotransformation [4] | Bacterial Biotransformation [5] | Bacterial Biotransformation [6] | Bacterial Biotransformation [7] | Bacterial Biotransformation [8] | Bacterial Biotransformation [9] | Bacterial Biotransformation [10] | Bacterial Biotransformation [12] | Bacterial Biotransformation [14] | Bacterial Biotransformation [15] | Bacterial Biotransformation [16] | Bacterial Biotransformation [17] | Bacterial Biotransformation [18] | Bacterial Biotransformation [19]
COc1cc2nc(N3CCN(C(=O)C4COc5ccccc5O4)CC3)nc(N)c2cc1OC.CS(=O)(=O)O (centres undefined) [DOXAZOSIN MESYLATE] | Compound metabolized | Compound metabolized | – | Compound NOT metabolized | Compound NOT metabolized | Compound metabolized | Compound metabolized | Compound metabolized | Compound metabolized | Compound metabolized | Compound metabolized | Compound NOT metabolized | Compound metabolized | Compound NOT metabolized | Compound metabolized | Compound metabolized | Compound metabolized | Compound NOT metabolized | Compound NOT metabolized | Compound NOT metabolized
